Test system: 616215-338-R-J1-PDC tumor spheroids, viability
Experiment: Anticancer human tumor 616215-338-R-J1-PDC patient-derived colon adenocarcinoma cell line growth inhibition [GQUAD]
Conditions: spheroids with HUVEC and MSC; for IC50: curve of first compound; for viability, T/C: stronger effect = lower value
How it was run: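 Multi-cell-type spheroids of tumor cells with HUVEC and mesenchymal stem cells, treated with drug combinations. Concentrations descend in half-log steps from near clinical Cmax, or from 10 microM where Cmax is unknown; viability read-out.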

[1] = second compound 0.0316 µM, first compound 0.0316 µM
[2] = second compound 0.0316 µM, first compound 0.1 µM
[3] = second compound 0.0316 µM, first compound 0.316 µM
[4] = second compound 0.0316 µM, first compound 1 µM
[5] = second compound 0.0316 µM, first compound 3.16 µM
[6] = second compound 0.0316 µM, first compound 10 µM
[7] = second compound 0.1 µM, first compound 0.0316 µM
[8] = second compound 0.1 µM, first compound 0.1 µM
[9] = second compound 0.1 µM, first compound 0.316 µM
[10] = second compound 0.1 µM, first compound 1 µM
[11] = second compound 0.1 µM, first compound 3.16 µM
[12] = second compound 0.1 µM, first compound 10 µM
[13] = second compound 0.316 µM, first compound 0.0316 µM
[14] = second compound 0.316 µM, first compound 0.1 µM
[15] = second compound 0.316 µM, first compound 0.316 µM
[16] = second compound 0.316 µM, first compound 1 µM
[17] = second compound 0.316 µM, first compound 3.16 µM
[18] = second compound 0.316 µM, first compound 10 µM
[19] = second compound 1 µM, first compound 0.0316 µM
[20] = second compound 1 µM, first compound 0.1 µM
[21] = second compound 1 µM, first compound 0.316 µM
[22] = second compound 1 µM, first compound 1 µM
[23] = second compound 1 µM, first compound 3.16 µM
[24] = second compound 1 µM, first compound 10 µM
[25] = second compound 3.16 µM, first compound 0.0316 µM
[26] = second compound 3.16 µM, first compound 0.1 µM
[27] = second compound 3.16 µM, first compound 0.316 µM
[28] = second compound 3.16 µM, first compound 1 µM
[29] = second compound 3.16 µM, first compound 3.16 µM
[30] = second compound 3.16 µM, first compound 10 µM
[31] = second compound 10 µM, first compound 0.0316 µM
[32] = second compound 10 µM, first compound 0.1 µM
[33] = second compound 10 µM, first compound 0.316 µM
[34] = second compound 10 µM, first compound 1 µM
[35] = second compound 10 µM, first compound 3.16 µM
[36] = second compound 10 µM, first compound 10 µM
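Further: spheroids exposed to agents for 7 days before readout.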
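Wherever viability, T/C is given: percent viability relative to DMSO vehicle control wells taken as 100%.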

COc1ncnc(C2CC2)c1-c1ncc2cnn(Cc3ccc(-c4nc(C(F)(F)F)cn4C(C)C)cc3)c2n1 + CN(C)c1ccc(Nc2c3ccc(NC(=O)CCN4CCCC4)cc3nc3cc(NC(=O)CCN4CCCC4)ccc23)cc1
IC50 (second compound 0.0316 µM): > 10 µM
IC50 (second compound 0.1 µM): > 10 µM
IC50 (second compound 0.316 µM): > 10 µM
IC50 (second compound 1 µM): > 10 µM
IC50 (second compound 3.16 µM): > 10 µM
IC50 (second compound 10 µM): 9.35 µM
viability, T/C [1]: 114%
viability, T/C [2]: 101%
viability, T/C [3]: 105%
viability, T/C [4]: 96.3%
viability, T/C [5]: 109%
viability, T/C [6]: 97.5%
viability, T/C [7]: 102%
viability, T/C [8]: 96.1%
viability, T/C [9]: 100%
viability, T/C [10]: 101%
viability, T/C [11]: 114%
viability, T/C [12]: 90.2%
viability, T/C [13]: 106%
viability, T/C [14]: 95.3%
viability, T/C [15]: 96.9%
viability, T/C [16]: 104%
viability, T/C [17]: 101%
viability, T/C [18]: 93.7%
viability, T/C [19]: 101%
viability, T/C [20]: 114%
viability, T/C [21]: 105%
viability, T/C [22]: 101%
viability, T/C [23]: 101%
viability, T/C [24]: 92.1%
viability, T/C [25]: 96.4%
viability, T/C [26]: 91.2%
viability, T/C [27]: 91.4%
viability, T/C [28]: 105%
viability, T/C [29]: 93.2%
viability, T/C [30]: 97.7%
viability, T/C [31]: 91.7%
viability, T/C [32]: 85.3%
viability, T/C [33]: 97.3%
viability, T/C [34]: 90.3%
viability, T/C [35]: 86.2%
viability, T/C [36]: 47.8%

Cc1[nH]c2ccccc2c1CCNCc1ccc(/C=C/C(=O)NO)cc1 + CN(C)c1ccc(Nc2c3ccc(NC(=O)CCN4CCCC4)cc3nc3cc(NC(=O)CCN4CCCC4)ccc23)cc1
IC50 (second compound 0.0316 µM): 0.174 µM
IC50 (second compound 0.1 µM): 0.132 µM
IC50 (second compound 0.316 µM): 0.134 µM
IC50 (second compound 1 µM): 0.118 µM
IC50 (second compound 3.16 µM): 0.0908 µM
IC50 (second compound 10 µM): 0.0661 µM
viability, T/C (second compound 0.0316 µM, first compound 0.000999 µM): 104%
viability, T/C (second compound 0.0316 µM, first compound 0.00316 µM): 102%
viability, T/C (second compound 0.0316 µM, first compound 0.00999 µM): 104%
viability, T/C [1]: 107%
viability, T/C (second compound 0.0316 µM, first compound 0.0999 µM): 83.1%
viability, T/C [3]: 14.2%
viability, T/C (second compound 0.1 µM, first compound 0.000999 µM): 93.1%
viability, T/C (second compound 0.1 µM, first compound 0.00316 µM): 99.5%
viability, T/C (second compound 0.1 µM, first compound 0.00999 µM): 104%
viability, T/C [7]: 88.8%
viability, T/C (second compound 0.1 µM, first compound 0.0999 µM): 61.2%
viability, T/C [9]: 15.8%
viability, T/C (second compound 0.316 µM, first compound 0.000999 µM): 101%
viability, T/C (second compound 0.316 µM, first compound 0.00316 µM): 103%
viability, T/C (second compound 0.316 µM, first compound 0.00999 µM): 113%
viability, T/C [13]: 104%
viability, T/C (second compound 0.316 µM, first compound 0.0999 µM): 62.7%
viability, T/C [15]: 12.3%
viability, T/C (second compound 1 µM, first compound 0.000999 µM): 113%
viability, T/C (second compound 1 µM, first compound 0.00316 µM): 93.8%
viability, T/C (second compound 1 µM, first compound 0.00999 µM): 105%
viability, T/C [19]: 86%
viability, T/C (second compound 1 µM, first compound 0.0999 µM): 57%
viability, T/C [21]: 7.13%
viability, T/C (second compound 3.16 µM, first compound 0.000999 µM): 102%
viability, T/C (second compound 3.16 µM, first compound 0.00316 µM): 96.8%
viability, T/C (second compound 3.16 µM, first compound 0.00999 µM): 87.8%
viability, T/C [25]: 92%
viability, T/C (second compound 3.16 µM, first compound 0.0999 µM): 46.2%
viability, T/C [27]: 12.2%
viability, T/C (second compound 10 µM, first compound 0.000999 µM): 92.9%
viability, T/C (second compound 10 µM, first compound 0.00316 µM): 93%
viability, T/C (second compound 10 µM, first compound 0.00999 µM): 77.7%
viability, T/C [31]: 70.3%
viability, T/C (second compound 10 µM, first compound 0.0999 µM): 39.3%
viability, T/C [33]: 0.37%

COc1ccc([C@@H](O)c2cc(-c3ncnc4cc(N5CCOCC5)ccc34)c(F)cc2Cl)nn1 + Cc1[nH]c2ccc(F)cc2c1-c1nc2c3cccnc3c3ncccc3c2[nH]1
IC50 (second compound 0.0316 µM): > 10 µM
IC50 (second compound 0.1 µM): > 10 µM
IC50 (second compound 0.316 µM): > 10 µM
IC50 (second compound 1 µM): > 10 µM
IC50 (second compound 3.16 µM): > 10 µM
IC50 (second compound 10 µM): 8.73 µM
viability, T/C [1]: 106%
viability, T/C [2]: 108%
viability, T/C [3]: 101%
viability, T/C [4]: 105%
viability, T/C [5]: 106%
viability, T/C [6]: 53.6%
viability, T/C [7]: 108%
viability, T/C [8]: 104%
viability, T/C [9]: 110%
viability, T/C [10]: 104%
viability, T/C [11]: 104%
viability, T/C [12]: 58.4%
viability, T/C [13]: 104%
viability, T/C [14]: 111%
viability, T/C [15]: 111%
viability, T/C [16]: 111%
viability, T/C [17]: 111%
viability, T/C [18]: 61%
viability, T/C [19]: 101%
viability, T/C [20]: 99.2%
viability, T/C [21]: 104%
viability, T/C [22]: 96.8%
viability, T/C [23]: 90.2%
viability, T/C [24]: 72.5%
viability, T/C [25]: 96.7%
viability, T/C [26]: 99.2%
viability, T/C [27]: 90%
viability, T/C [28]: 97.8%
viability, T/C [29]: 97.4%
viability, T/C [30]: 51.2%
viability, T/C [31]: 90.3%
viability, T/C [32]: 101%
viability, T/C [33]: 97.4%
viability, T/C [34]: 117%
viability, T/C [35]: 100%
viability, T/C [36]: 43.2%
